Where two headings read alike, the source gives them in different places.
What was measured:
[1] = tested on: HCV replicon cells Huh 9B; experiment: HCV replicon assay (luciferase readout); format: cell-based
Protocol: (§1) HCV replicon cells Huh 9B (ReBlikon), containing the firefly luciferase-ubiquitin-neomycin phosphotransferase fusion protein and EMCV-IRES driven HCV polyprotein with cell culture adaptive mutations.
Cells were cultured at 37° C. in a 5% CO2 environment and split twice a week on seeding at 2×10^6 cells/flask on day 1 and 1×10^6 3 days later. G418 at 0.5 mg/ml was added to the culture medium but not the assay medium.
The culture medium consisted of DMEM with […] glucose and glutamax (Gibco 61965-026) supplemented with 1× non-essential amino acids (Invitrogen 11140-035), penicillin (100 IU/ml)/streptomycin (100 μg/ml) (Invitrogen 15140-122), FCS (10%, 50 ml) and 1 mg/ml G418 (Invitrogen 10131-027) & 10% Australian foetal calf serum (Invitrogen 10099-141).
A flask of cells was trypsinised and a cell count carried out. Cells were diluted to 100,000 cells/ml and 100 μl of this used to seed one opaque white 96-well plate (for the replicon assay) and one flat-bottomed clear plate (for the tox assay) for every seven compounds to be tested for IC50. Wells G12 and H12 were left empty in the clear plate as the blank. Plates were then incubated at 37° C. in a 5% CO2 environment for 24 h.
(§2) On the following day compound dilutions are made up in medium at twice their desired final concentration in a clear round bottomed plate. All dilutions have a final DMSO concentration of 1%.
Once the dilution plate had been made up, controls and compounds were transferred to the assay plate (containing the cells) at 100 μl /well in duplicate plates. Exception: no compound was added to wells A1 and A2 of either plate and 100 μl of 1% DMSO was added to these instead. Plates were then incubated at 37° C. with 5% CO2 for 72 h.
At the end of the incubation time, the cells in the white plate were harvested by washing 23.5 mM beetle luciferin (Promega E1603), 26 mM ATP (Sigma 0-2060) in […] Tris buffer pH 7.8 aliquoted and stored at −80 C was thawed and diluted 1:50 in luciferase assay buffer (20 mM Tricine (Sigma T-0377), 1.07 mM magnesium carbonate hydroxide (Sigma M-5671), 0.1 mM EDTA (Sigma E-5134), 2.67 mM MgSO4 (BDH 101514Y), 33.3 mM dithiothreitol (Sigma 150460) pH 7.8).
The M injector of the microplate luminometer (Lmax, Molecular Devices) was primed with 5×300 μl injections of the diluted substrate. After 5-60 min incubation in lysis buffer at room temperature, a plate was inserted into the luminometer and 100 μl luciferase assay reagent was added by the injector on the luminometer. The signal was measured using a 1 second delay followed by a 4 second measurement programme.

[2] = tested on: HCV replicon cells Huh 9B; format: cell-based
Protocol: as §1
A flask of cells was trypsinised and a cell count carried out. […] Wells G12 and H12 were left empty in the clear plate as the blank. Plates were then incubated at 37° C. in a 5% CO2 environment for 24 h.
as §2
Exception: no compound was added to wells A1 and A2 of either plate and 100 μl of 1% DMSO was added to these instead. Plates were then incubated at 37° C. with 5% CO2 for 72 h.
The clear plate was stained with 100 μl 0.5% methylene blue in 50% ethanol at room temperature for 1 h, followed by solvation of the absorbed methylene blue in 100 μl per well of 1% lauroylsarcosine. Absorbance of the plate was measured on a microplate spectrophotometer (Molecular Devices) and the absorbance for each concentration of compound expressed as a proportion of the relative DMSO control.

Row | Compound | IC50 [1] [µM] | TD50 [2] | IC50 ([1]; Hepatitis C virus, 72 h, concentration reducing replicon level (luciferase activity) by 50% vs untreated cell control, 72 h incubation) [µM] | TD50 ([2]; concentration reducing total cell area by 50% relative to DMSO controls, methylene blue, absorbance 620 nm, 72 h incubation)
1 | Cc1ccc(C(=O)Nc2ccc(N3CCOCC3)cc2)cc1-c1ccc(C(=O)NCc2cccc(OC(F)(F)F)c2)cc1 [Example 41, 6-Methyl-biphenyl-3,4′-dicarboxylic acid 3-[(4-morpholin-4-yl-phenyl)-amide] 4′-(3-trifluoromethoxy-benzylamide)] | < 1 | ** (key: * < 50 μM; ** > 50 μM) |  | 
2 | Cc1ccc(C(=O)Nc2ccc(N3CCOCC3)cc2)cc1-c1ccc(C(=O)NCc2ccc(Cl)c(C(F)(F)F)c2)cc1 [Example 42, 6-Methyl-biphenyl-3,4′-dicarboxylic acid 4′-(4-chloro-3-trifluoromethyl-benzylamide) 3-[(4-morpholin-4-yl-phenyl)-amide]] | < 1 | ** (key: * < 50 μM; ** > 50 μM) |  | 
3 | Cc1ccc(CNC(=O)c2ccc(-c3cc(C(=O)Nc4ccc(N5CCOCC5)cc4)ccc3C)cc2)cc1Cl [Example 43, 6-Methyl-biphenyl-3,4′-dicarboxylic acid 4′-(3-chloro-4-methyl-benzylamide) 3-[(4-morpholin-4-yl-phenyl)-amide]] | < 1 | ** (key: * < 50 μM; ** > 50 μM) |  | 
4 | Cc1ccc(C(=O)Nc2ccc(N3CCOCC3)cc2)cc1-c1ccc(C(=O)Nc2ccc3[nH]ccc3c2)cc1 [Example 45, 6-Methyl-biphenyl-3,4′-dicarboxylic acid 4′-[(1H-indol-5-yl)-amide] 3-[(4-morpholin-4-yl-phenyl)-amide]] | 1 to 5 | ** (key: * < 50 μM; ** > 50 μM) |  | 
5 | Cc1ccc(C(=O)Nc2ccc(N3CCOCC3)cc2)cc1-c1ccc(C(=O)Nc2ccc3ncsc3c2)cc1 [Example 46, 6-Methyl-biphenyl-3,4′-dicarboxylic acid 4′-benzothiazol-6-ylamide 3-[(4-morpholin-4-yl-phenyl)-amide]] | > 5 | ** (key: * < 50 μM; ** > 50 μM) |  | 
6 | Cc1ccc(C(=O)Nc2ccc(N3CCOCC3)cc2)cc1-c1ccc(C(=O)NCc2cccc(CNC(=O)OC(C)(C)C)c2)cc1 [Example 47, [3-({[2′-Methyl-5′-(4-morpholin-4-yl-phenylcarbamoyl)-biphenyl-4-carbonyl]-amino}-methyl)-benzyl]-carbamic acid tert-butyl ester] |  |  | > 5 | ** (** > 50 μM)
7 | Cc1ccc(C(=O)Nc2ccc(N3CCOCC3)cc2)cc1-c1ccc(C(=O)Nc2cccc3cc[nH]c23)cc1 [Example 48, 6-Methyl-biphenyl-3,4′-dicarboxylic acid 4′-[(1H-indol-7-yl)-amide] 3-[(4-morpholin-4-yl-phenyl)-amide]] | 1 to 5 | ** (key: * < 50 μM; ** > 50 μM) |  | 
8 | Cc1ccc(C(=O)Nc2ccc(N3CCOCC3)cc2)cc1-c1ccc(C(=O)NCc2ccccc2Sc2ccccc2CO)cc1 [Example 49, 6-Methyl-biphenyl-3,4′-dicarboxylic acid 4′-[2-(2-hydroxymethyl-phenylsulfanyl)-benzylamide] 3-[(4-morpholin-4-yl-phenyl)-amide]] | < 1 | ** (key: * < 50 μM; ** > 50 μM) |  | 
9 | Cc1ccc(C(=O)Nc2ccc(N3CCOCC3)cc2)cc1-c1ccc(C(=O)Nc2ccc(CN3CCS(=O)(=O)CC3)cc2)cc1 [Example 50, 6-Methyl-biphenyl-3,4′-dicarboxylic acid 4′-{[4-(1,1-dioxo-1lambda*6*-thiomorpholin-4-ylmethyl)-phenyl]-amide} 3-[(4-morpholin-4-yl-phenyl)-amide]] | < 1 | ** (key: * < 50 μM; ** > 50 μM) |  | 
10 | Cc1ccc(C(=O)Nc2ccc(N3CCOCC3)cc2)cc1-c1ccc(C(=O)N[C@H](CO)Cc2c[nH]c3ccccc23)cc1 [Example 51, 6-Methyl-biphenyl-3,4′-dicarboxylic acid 4′-{[(S)-1-hydroxymethyl-2-(1H-indol-3-yl)-ethyl]-amide} 3-[(4-morpholin-4-yl-phenyl)-amide]] | 1 to 5 | ** (key: * < 50 μM; ** > 50 μM) |  | 
11 | Cc1ccc(C(=O)Nc2ccc(N3CCOCC3)cc2)cc1-c1ccc(C(=O)NCc2cccc(Br)c2)cc1 [Example 52, 6-Methyl-biphenyl-3,4′-dicarboxylic acid 4′-(3-bromo-benzylamide) 3-[(4-morpholin-4-yl-phenyl)-amide]] | 1 to 5 | ** (key: * < 50 μM; ** > 50 μM) |  | 
12 | Cc1ccc(C(=O)Nc2ccc(N3CCOCC3)cc2)cc1-c1ccc(C(=O)Nc2ccc(N)cc2)cc1 [Example 53, 6-Methyl-biphenyl-3,4′-dicarboxylic acid 4′-[(4-amino-phenyl)-amide] 3-[(4-morpholin-4-yl-phenyl)-amide]] | 1 to 5 | ** (key: * < 50 μM; ** > 50 μM) |  | 
13 | CNS(=O)(=O)Cc1ccc(NC(=O)c2ccc(-c3cc(C(=O)Nc4ccc(N5CCOCC5)cc4)ccc3C)cc2)cc1 [Example 54, 6-Methyl-biphenyl-3,4′-dicarboxylic acid 4′-[(4-methylsulfamoylmethyl-phenyl)-amide] 3-[(4-morpholin-4-yl-phenyl)-amide]] | 1 to 5 | ** (key: * < 50 μM; ** > 50 μM) |  | 
14 | Cc1ccc(C(=O)Nc2ccc(N3CCOCC3)cc2)cc1-c1ccc(C(=O)Nc2cc(Br)cc3cc[nH]c23)cc1 [Example 55, 6-Methyl-biphenyl-3,4′-dicarboxylic acid 4′-[(5-bromo-1H-indol-7-yl)-amide] 3-[(4-morpholin-4-yl-phenyl)-amide]] | 1 to 5 | ** (key: * < 50 μM; ** > 50 μM) |  | 
15 | Cc1ccc(C(=O)Nc2ccc(N3CCOCC3)cc2)cc1-c1ccc(C(=O)Nc2ccc(-c3cc[nH]n3)cc2)cc1 [Example 56, 6-Methyl-biphenyl-3,4′-dicarboxylic acid 3-[(4-morpholin-4-yl-phenyl)-amide] 4′-{[4-(1H-pyrazol-3-yl)-phenyl]-amide}] | < 1 | * (key: * < 50 μM; ** > 50 μM) |  | 
16 | Cc1ccc(C(=O)Nc2ccc(N3CCOCC3)cc2)cc1-c1ccc(C(=O)NCc2cccc(Cl)c2F)cc1 [Example 57, 6-Methyl-biphenyl-3,4′-dicarboxylic acid 4′-(3-chloro-2-fluoro-benzylamide) 3-[(4-morpholin-4-yl-phenyl)-amide]] | 1 to 5 | ** (key: * < 50 μM; ** > 50 μM) |  | 
17 | Cc1ccc(C(=O)Nc2ccc(N3CCOCC3)cc2)cc1-c1ccc(C(=O)Nc2ccc(C(=O)N3CCCCC3)cc2)cc1 [Example 58, 6-Methyl-biphenyl-3,4′-dicarboxylic acid 3-[(4-morpholin-4-yl-phenyl)-amide] 4′-{[4-(piperidine-1-carbonyl)-phenyl]-amide}] | 1 to 5 | ** (key: * < 50 μM; ** > 50 μM) |  | 
18 | O=C(Nc1ccc2[nH]ccc2c1)c1ccc(-c2cccc(C(=O)Nc3ccc(N4CCOCC4)cc3)c2)cc1 [Example 59, Biphenyl-3,4′-dicarboxylic acid 4′-[(1H-indol-5-yl)-amide] 3-[(4-morpholin-4-yl-phenyl)-amide]] | 1 to 5 | ** (key: * < 50 μM; ** > 50 μM) |  | 
19 | O=C(Nc1ccc2cc[nH]c2c1)c1ccc(-c2cccc(C(=O)Nc3ccc(N4CCOCC4)cc3)c2)cc1 [Example 60, Biphenyl-3,4′-dicarboxylic acid 4′-[(1H-indol-6-yl)-amide] 3-[(4-morpholin-4-yl-phenyl)-amide]] | < 1 | * (key: * < 50 μM; ** > 50 μM) |  | 
20 | CC(=O)Nc1cccc(NC(=O)c2ccc(-c3cc(C(=O)Nc4ccc(N5CCOCC5)cc4)ccc3C)cc2)c1 [Example 61, 6-Methyl-biphenyl-3,4′-dicarboxylic acid 4′-[(3-acetylamino-phenyl)-amide] 3-[(4-morpholin-4-yl-phenyl)-amide]] | 1 to 5 | ** (key: * < 50 μM; ** > 50 μM) |  | 

Reference: patent US8008303B2, “Biphenyl derivatives and their use in treating hepatitis C” (AstraZeneca AB, priority 2005, dated 2011)
